Numbers after ± are expanded uncertainties.
Settings: Ring tensiometer

Molecule `CO` [methanol] has a surface tension liquid-gas (279.11 K) of 23.87 ± 0.14 mN/m, a surface tension liquid-gas (282.59 K) of 23.63 ± 0.14 mN/m and a surface tension liquid-gas (288.3 K) of 23.14 ± 0.12 mN/m. For the same molecule, the surface tension liquid-gas (293.37 K) was 22.73 ± 0.12 mN/m, the surface tension liquid-gas (296.97 K) was 22.43 ± 0.13 mN/m and the surface tension liquid-gas (301.54 K) was 21.99 ± 0.11 mN/m. The surface tension liquid-gas (307.31 K) was 21.43 ± 0.11 mN/m, the surface tension liquid-gas (311.76 K) was 21 ± 0.15 mN/m and the surface tension liquid-gas (317.66 K) was 20.43 ± 0.14 mN/m. The surface tension liquid-gas (322.9 K) was 19.83 ± 0.17 mN/m, the surface tension liquid-gas (326.56 K) was 19.42 ± 0.15 mN/m and the surface tension liquid-gas (330.01 K) was 19.09 ± 0.11 mN/m. The surface tension liquid-gas (333.81 K) was 18.63 ± 0.14 mN/m.

Reference: the NIST ThermoML archive (doi:10.1021/je8003468)
